Data set [1] concerns the target T1, human OPRM (Homo sapiens, UniProt P35372). Details: expressed in transfected cells; host or cells: CHO-K1 (cell lines provided by Dr. Toll, Torrey Pines Institute). Particulars: cited from earlier work.
Data set [2] addresses T2, human OPRM (μ-opioid receptor) (Homo sapiens, UniProt P35372). The following applies: cited from earlier work.
The test system of data set [3] is human OPRK (κ-opioid receptor). The experiment in a line: biochemical. It counts as binding.
The target of data set [4] is T1, human OPRM. The experiment in a line: biochemical. It counts as biochemical. The arrangement: expressed in transfected cells; host or cells: CHO-K1 (cell lines provided by Dr. Toll, Torrey Pines Institute).
In data set [5] the target is T2, human OPRM (μ-opioid receptor). The experiment in a line: biochemical. Details: expressed in transfected cells; host or cells: CHO-K1 (cell lines provided by Dr. Toll, Torrey Pines Institute). In kind it is binding.
For data set [6], the target named is T3, OPRK (Homo sapiens, UniProt P41145). The experiment in a line: biochemical. Details: purchased PerkinElmer Life Sciences (Boston, Mass.).
T3 sequence (P41145 whole entry): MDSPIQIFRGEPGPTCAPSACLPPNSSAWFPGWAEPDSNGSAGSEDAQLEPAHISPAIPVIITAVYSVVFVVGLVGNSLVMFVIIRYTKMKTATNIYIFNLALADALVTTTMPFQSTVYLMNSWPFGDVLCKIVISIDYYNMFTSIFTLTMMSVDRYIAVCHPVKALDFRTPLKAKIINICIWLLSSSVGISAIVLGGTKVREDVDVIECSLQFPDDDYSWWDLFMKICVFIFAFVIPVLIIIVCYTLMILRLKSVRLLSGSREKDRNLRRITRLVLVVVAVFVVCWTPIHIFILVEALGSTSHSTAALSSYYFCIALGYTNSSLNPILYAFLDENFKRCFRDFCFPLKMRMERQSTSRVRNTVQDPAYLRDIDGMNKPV
The target of data set [7] is T4, human OPRK (κ-opioid receptor) (Homo sapiens, UniProt P41145).
T4 construct: purchased PerkinElmer Life Sciences (Boston, Mass.)
T4 sequence (P41145 whole entry): as above
Nature of the data set: biochemical. In kind it is binding. Particulars: for Ki: read-out: Ki.

For the next data set, the target named is calf OPRK (Bos taurus, UniProt Q2KIP6). Particulars: calf receptor, literature; cited from earlier work.
Chain of calf OPRK (Q2KIP6 whole entry): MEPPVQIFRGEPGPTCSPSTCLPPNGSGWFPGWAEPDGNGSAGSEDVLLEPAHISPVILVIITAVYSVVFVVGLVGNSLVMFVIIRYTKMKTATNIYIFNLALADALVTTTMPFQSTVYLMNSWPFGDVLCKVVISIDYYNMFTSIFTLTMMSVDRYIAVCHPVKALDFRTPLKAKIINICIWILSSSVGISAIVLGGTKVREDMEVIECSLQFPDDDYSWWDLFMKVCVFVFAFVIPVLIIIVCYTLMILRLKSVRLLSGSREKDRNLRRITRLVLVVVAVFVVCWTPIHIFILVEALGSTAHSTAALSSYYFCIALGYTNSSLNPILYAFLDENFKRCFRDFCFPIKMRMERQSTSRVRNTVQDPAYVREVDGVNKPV
A further data set has as its target calf OPRM (Bos taurus, UniProt P79350). Particulars: calf receptor, literature, cited from earlier work.
Data set [8] has as its target OPRD: opioid receptor delta (Bos taurus, UniProt F1N083). The following applies: literature (Pearl, Herrick-Davis et al. 1995); cited from earlier work.
In data set [9] the target is T3, OPRK. The experiment in a line: cell-based. Details: host or cells: CHO-K1. Particulars: OPRK, inhibitory component; pKi-pKe.
A short description of data set [10]: Ascending single-dose pharmacokinetics of noribogaine in healthy volunteers. Particulars: for Cmax / Tmax / AUC0-216 / AUC0-∞ / t1/2: fasted healthy males, mean (SD), n = 6.
Data set [11] addresses T1, human OPRM. The experiment in a line: cell-based. In kind it is cell-based. Details: host or cells: CHO-K1.
Where [12] appears, read: OPRK, [3H]-U69,593 binding, This work.
Where [13] appears, read: 30 mg noribogaine single oral dose.
[14] abbreviates: 30 mg noribogaine single oral dose, plasma.
Where [15] appears, read: 60 mg noribogaine single oral dose.
Where [16] appears, read: 60 mg noribogaine single oral dose, plasma.

Values joined by “and” are separate entries in the source; they are usually repeats but may differ in a detail not shown here. Equal entries are not always repeated. Where two headings read alike, the source gives them in different places. Marks after values point to notes of the source that are not given here.

Chain of calf OPRM (P79350 whole entry): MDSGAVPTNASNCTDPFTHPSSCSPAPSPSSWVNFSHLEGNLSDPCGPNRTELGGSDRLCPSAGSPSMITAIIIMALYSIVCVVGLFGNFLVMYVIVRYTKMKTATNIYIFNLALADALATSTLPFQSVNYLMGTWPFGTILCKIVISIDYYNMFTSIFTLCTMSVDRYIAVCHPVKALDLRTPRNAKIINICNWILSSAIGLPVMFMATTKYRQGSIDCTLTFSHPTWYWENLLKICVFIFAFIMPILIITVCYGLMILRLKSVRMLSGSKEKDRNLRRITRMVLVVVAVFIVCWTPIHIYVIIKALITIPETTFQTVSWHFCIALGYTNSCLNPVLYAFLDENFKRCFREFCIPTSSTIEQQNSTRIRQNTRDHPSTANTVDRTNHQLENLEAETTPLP
T2 sequence (P35372 whole entry): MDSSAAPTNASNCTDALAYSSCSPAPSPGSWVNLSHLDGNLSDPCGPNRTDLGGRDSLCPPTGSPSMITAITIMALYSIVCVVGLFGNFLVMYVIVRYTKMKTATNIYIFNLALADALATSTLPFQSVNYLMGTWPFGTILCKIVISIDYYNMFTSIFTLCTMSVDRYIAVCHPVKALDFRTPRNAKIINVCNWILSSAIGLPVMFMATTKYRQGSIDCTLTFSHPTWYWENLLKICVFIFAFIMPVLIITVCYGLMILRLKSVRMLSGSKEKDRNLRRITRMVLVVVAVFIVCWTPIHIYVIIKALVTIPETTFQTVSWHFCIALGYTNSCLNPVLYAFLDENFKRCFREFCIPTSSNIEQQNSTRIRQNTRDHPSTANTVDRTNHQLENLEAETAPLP
T1 sequence (P35372 whole entry): as above
Chain of OPRD: opioid receptor delta (F1N083 1-372): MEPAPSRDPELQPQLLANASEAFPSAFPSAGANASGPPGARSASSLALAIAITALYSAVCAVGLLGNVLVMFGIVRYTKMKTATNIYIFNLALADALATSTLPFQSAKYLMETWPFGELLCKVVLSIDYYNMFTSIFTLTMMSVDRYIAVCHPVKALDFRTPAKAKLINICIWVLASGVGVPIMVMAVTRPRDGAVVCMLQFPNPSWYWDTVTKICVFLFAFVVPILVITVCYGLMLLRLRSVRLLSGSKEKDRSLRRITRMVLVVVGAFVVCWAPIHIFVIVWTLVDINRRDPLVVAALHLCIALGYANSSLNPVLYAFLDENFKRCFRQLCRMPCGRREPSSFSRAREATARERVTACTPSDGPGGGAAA

Usually EC50 stands for the concentration that produces a half-maximal response. By Ki is commonly meant a measure of affinity in units of concentration, obtained from inhibition or displacement. By pKi is commonly meant the negative decadic logarithm of the Ki, by convention in mol/L. On to `NC(N)=Nc1ccc2c3c([nH]c2c1)[C@@H]1Oc2c(O)ccc4c2[C@@]12CCN(CC1CC1)[C@H](C4)[C@]2(O)C3` [6′GNTI], for which, at human OPRM [1] (OPRM, activation, literature), the EC50 was more than 1000 nM and the Efficacy is listed as 0~ %. Moreover, in [2], the Ki is 82 nM and the pKi is 7.1. For the same compound, the “Specificity ΔpKi” value in data set [3] (ΔpKi = pKi(OPRK)-pKi(OPRM)) is 1.84.

A word on the pEC50: it is the EC50 on a negative log10 scale, so that one unit is a factor of ten. Regarding `COCC[C@H]1CC2CN3CCc4c([nH]c5ccccc45)[C@](C(=O)OC)(C2)[C@H]13` [18-MC, 18-methoxycoronaridine], the “Efficacy (Emax)” value at human OPRM [4] and on OPRK [6] was less than 5% in each case. Besides, the “stimulation of the OPRM G-protein pathway” value on human OPRM [4] is “failed to stimulate”. Besides, the pKi is 5.6* in [5], 5.7* in data set [7] (setting [12]), 5.3* at calf OPRK and 6.0* on calf OPRM. Further, the Ki in data set [5] (read-out: Ki) is 2260 nM and 2360 nM; in [7] (setting [12]), 1800 nM; in data set [7] (human OPRK, [3H]-U69,593), 1840 ± 120 nM; on calf OPRK, 5100 nM; at calf OPRM (read-out: Ki), 1100 nM. Further, in data set [2], the “reported selectivity at OPRM” value is given as 5 ×. This compound displayed a pEC50 on OPRK [6] of 4.8. For the same compound, at OPRK [6], the “pEC50, (Ke): pKe” value is 5.3. Moreover, at OPRK [6], the “stimulation of [35S]GTPγS binding to OPRK” value is recorded as “failed to stimulate”. Moreover, at OPRK [6] (read-out: EC50), the EC50 is approximately 16000 nM. For the same compound, the “affinity at human OPRK versus OPRM” value in [3] (this work) is given as “equi-affine”.

As to `C[C@@H](NC(=O)[C@@H](N)Cc1ccc(O)cc1)C(=O)NCC(=O)N(C)[C@@H](Cc1ccccc1)C(=O)NCCO` [DAMGO, [D-Ala2, NMe-Phe4, Gly-ol5]-enkephalin], the “Specificity ΔpKi” value in data set [3] (ΔpKi = pKi(OPRK)-pKi(OPRM)) is recorded as less than −3.

The term Emax denotes the maximal effect, on the per cent scale that the assay sets. Regarding `CC[C@H]1CC2C[C@H]3c4[nH]c5ccc(OC)cc5c4CCN(C2)C13` [Ibogaine, reference compound], the “stimulation of the OPRM G-protein pathway” value at human OPRM [4] was “failed to stimulate”. For the same compound, on human OPRM [4] (read-out: Efficacy (Emax)), the Emax was -2.9%. Besides, affinity in [5] was put at a Ki of 6920 ± 830 nM. Besides, the “Ki at OPRD” value in [8] was “N.Q.)”. At calf OPRM, the inhibition constant (Ki) is 11000 nM and the pKi is listed as 5.0*.

With `C=C1CC[C@@]2(O)[C@H]3Cc4ccc(O)c5c4[C@@]2(CCN3CC2CC2)[C@H]1O5` [Nalmefene, reference compound], the “Specificity ΔpKi” value in data set [3] (ΔpKi = pKi(OPRK)-pKi(OPRM)) turned out to be 1.1.

On OPRK [9], `Oc1ccc2c3c1O[C@H]1c4[nH]c5c(c4C[C@@]4(O)[C@@H](C2)N(CC2CC2)CC[C@]314)C[C@@]1(O)[C@H]2Cc3ccc(O)c4c3[C@@]1(CCN2CC1CC1)[C@H]5O4` [NorBNI, nor-binaltorphimine, reference compound] returned an e-coupling of 0.27. In addition, in [3] (ΔpKi = pKi(OPRK)-pKi(OPRM)), the “Specificity ΔpKi” value is reported as 2.0.

Take `CC[C@H]1C[C@@H]2C[C@H]3c4[nH]c5ccc(OC6OC(C(=O)O)C(O)C(O)C6O)cc5c4CCN(C2)[C@@H]13` (stereo partly shown) [Noribogaine glucuronide]: in data set [10] (setting [13]), the Cmax is reported as 1.8 (0.6) ng/ml and the Tmax is listed as 3.0 (0.6) hr. Further, in data set [10] (setting [14]), the AUC0-216 was 25.7 (9.1) ng · hr/ml, the “AUC0-∞” value was 25.8 (9.3) ng · hr/ml and the t1/2 is 20.6 (4.9) hr. Moreover, in data set [10] (setting [15]), the Cmax was 4.1 (1.2) ng/ml and the Tmax is listed as 3.8 (1.2) hr. In addition, in data set [10] (setting [16]), the AUC0-216 was 65.0 (21.5) ng · hr/ml, the “AUC0-∞” value is listed as 67.1 (21.9) ng · hr/ml and the t1/2 is listed as 23.1 (3.0) hr. Further, the “time of peak concentrations after oral noribogaine dosing” value in data set [10] (across dose groups, healthy volunteers) fell in the range of 3 to 4 h. Also, in data set [10] (across dose groups, healthy volunteers, plasma), the Mean half-life fell in the range of 21 to 23 h. Further, the “proportion of noribogaine glucuronide Cmax and AUC relative to noribogaine” value in data set [10] (both dose groups (30 mg, 60 mg)) is reported as 3-4%. Besides, the “time by which detected in all subjects” value in [10] (plasma, 30 mg and 60 mg noribogaine dose groups) was not above 0.75 h.

With [Met]-Enkephalin [reference compound], the figures for the e-coupling on human OPRM [4] and at human OPRM [11] were 1.8 and 1.94, respectively. Moreover, the Efficacy is given as approximately 95% at human OPRM [1] and 100% at human OPRM [11]. The “Specificity ΔpKi” value in data set [3] is given as less than −3.

Source of the values: patent US20150258108A1 (priority 2014, published 2015).
